Test results from patent US7795290B2 (Genentech, Inc., priority 2004, dated 2010).

biological target: T1, AKT1 (Homo sapiens, UniProt P31749); test: HTS ATP-utilizing enzyme assay, off-chip mobility-shift (Caliper HTS 250); type: biochemical; conditions: kinase named = inhibitory activity/selectivity; test compound 10 μM; active = greater than three-sigma from mean
T1 construct: purchased Upstate 14-276
Method in brief: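 AKT1 activity was measured by off-chip mobility shift (Caliper HTS 250) as the ratio of peptide substrate to phosphorylated product. Test compound was at 10 μM, with 2.5 h incubation at 20–22° C. EDTA wells served as 100% control and DMSO wells as 0%. Hits were called at three-sigma limits.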

T1 sequence (P31749 whole entry): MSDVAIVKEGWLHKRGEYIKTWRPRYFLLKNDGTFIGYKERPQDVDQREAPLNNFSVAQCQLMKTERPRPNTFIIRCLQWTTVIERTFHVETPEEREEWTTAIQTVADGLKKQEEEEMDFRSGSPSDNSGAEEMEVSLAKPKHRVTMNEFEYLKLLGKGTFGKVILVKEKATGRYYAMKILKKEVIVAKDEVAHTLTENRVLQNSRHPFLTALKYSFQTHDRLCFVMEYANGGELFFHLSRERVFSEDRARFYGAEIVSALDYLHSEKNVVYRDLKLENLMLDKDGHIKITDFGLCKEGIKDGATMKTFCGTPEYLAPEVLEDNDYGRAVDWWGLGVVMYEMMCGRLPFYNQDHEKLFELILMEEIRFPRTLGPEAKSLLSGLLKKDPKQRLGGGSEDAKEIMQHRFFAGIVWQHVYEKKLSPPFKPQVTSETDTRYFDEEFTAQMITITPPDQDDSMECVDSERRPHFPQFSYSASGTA

Activity, AKT1:
O=C(c1cccs1)N(CCCN1CCCCC1)c1nc(-c2cc3ccccc3o2)cs1 [N-(4-(benzofuran-2-yl)thiazol-2-yl)-N-(3-(piperidin-1-yl)propyl)thiophene-2-carboxamide]
CCN(CC)CCCN(C(=O)c1cccs1)c1nc(-c2cc(OC)ccc2OC)cs1 [N-(3-(diethylamino)propyl)-N-(4-(2,5-dimethoxyphenyl)thiazol-2-yl)thiophene-2-carboxamide]
COC(=O)c1ccc(-c2csc(N(CCCN3CCOCC3)C(=O)c3cccs3)n2)cc1 [methyl 4-(2-(N-(3-morpholinopropyl)thiophene-2-carboxamido)thiazol-4-yl)benzoate]
CCOC(=O)Cc1csc(NC(=O)c2csc(N(CCCN3CCOCC3)C(=O)c3cccs3)n2)n1 [ethyl 2-(2-(2-(N-(3-morpholinopropyl)thiophene-2-carboxamido)thiazole-4-carboxamido)thiazol-4-yl)acetate]
O=C(CCN(C(=O)c1cccs1)c1nc(-c2cc3ccccc3o2)cs1)N1CCC(O)C1 (stereo not shown) [N-(4-(benzofuran-2-yl)thiazol-2-yl)-N-(3-(3-hydroxypyrrolidin-1-yl)-3-oxopropyl)thiophene-2-carboxamide]
O=C(c1cccs1)N(CCCN1CCCCCC1)c1nc(-c2ccccc2)cs1 [N-(3-(azepan-1-yl)propyl)-N-(4-phenylthiazol-2-yl)thiophene-2-carboxamide]
COc1ccc(-c2csc(N(CCCN3CCOCC3)C(=O)C3CCCCC3)n2)cc1 [N-(4-(4-methoxyphenyl)thiazol-2-yl)-N-(3-morpholinopropyl)cyclohexanecarboxamide]
CC(=O)NCCCN(C(=O)c1cccs1)c1nc(-c2cc3ccccc3o2)cs1 [N-(3-acetamidopropyl)-N-(4-(benzofuran-2-yl)thiazol-2-yl)thiophene-2-carboxamide]
COc1ccc(-c2csc(N(CCCN3CCOCC3)C(=O)c3cccs3)n2)cc1OC [N-(4-(3,4-dimethoxyphenyl)thiazol-2-yl)-N-(3-morpholinopropyl)thiophene-2-carboxamide]
Cc1ccc(C(=O)N(CCCN2CCOCC2)c2nc(-c3ccccc3)cs2)cc1 [4-methyl-N-(3-morpholinopropyl)-N-(4-phenylthiazol-2-yl)benzamide]
O=C(c1cccs1)N(CCCN1CCOCC1)c1nc(-c2cccs2)cs1 [N-(3-morpholinopropyl)-N-(4-(thiophen-2-yl)thiazol-2-yl)thiophene-2-carboxamide]
O=C1CN(C(=O)CCCN(C(=O)c2cccs2)c2nc(-c3cc4ccccc4o3)cs2)CCN1 [N-(4-(benzofuran-2-yl)thiazol-2-yl)-N-(4-oxo-4-(3-oxopiperazin-1-yl)butyl)thiophene-2-carboxamide]
O=C(c1cccs1)N(CCCC(=O)N1CCCC1c1cccnc1)c1nc(-c2cc3ccccc3o2)cs1 (stereo not shown) [N-(4-(benzofuran-2-yl)thiazol-2-yl)-N-(4-oxo-4-(2-(pyridin-3-yl)pyrrolidin-1-yl)butyl)thiophene-2-carboxamide]
CCN(CC)C1CCN(C(=O)CCCN(C(=O)c2cccs2)c2nc(-c3cc4ccccc4o3)cs2)CC1 [N-(4-(benzofuran-2-yl)thiazol-2-yl)-N-(4-(4-(diethylamino)piperidin-1-yl)-4-oxobutyl)thiophene-2-carboxamide]
NC(=O)c1cccc(NC(=O)c2csc(N(CCCN3CCOCC3)C(=O)c3cccs3)n2)c1 [N-(3-carbamoylphenyl)-2-(N-(3-morpholinopropyl)thiophene-2-carboxamido)thiazole-4-carboxamide]
O=C(CCCN(C(=O)c1cccs1)c1nc(-c2cc3ccccc3o2)cs1)NCc1ccccn1 [N-(4-(benzofuran-2-yl)thiazol-2-yl)-N-(4-oxo-4-(pyridin-2-ylmethylamino)butyl)thiophene-2-carboxamide]
O=C(c1cccs1)N(CCCN1CCOCC1)c1nc(-c2ccc(N3CCCC3)cc2)cs1 [N-(3-morpholinopropyl)-N-(4-(4-(pyrrolidin-1-yl)phenyl)thiazol-2-yl)thiophene-2-carboxamide]
CN(C)CCN(C)C(=O)CCN(C(=O)c1cccs1)c1nc(-c2cc3ccccc3o2)cs1 [N-(4-(benzofuran-2-yl)thiazol-2-yl)-N-(3-((2-(dimethylamino)ethyl)(methyl)amino)-3-oxopropyl)thiophene-2-carboxamide]
O=C(c1cccs1)N(CCCN1CCOCC1)c1nc(-c2coc3ccccc23)cs1 [N-(4-(benzofuran-3-yl)thiazol-2-yl)-N-(3-morpholinopropyl)thiophene-2-carboxamide]
CCN(C(C)=O)C1CCN(CCCN(C(=O)c2cccs2)c2nc(-c3cc4ccccc4o3)cs2)C1 (stereo not shown) [N-(4-(benzofuran-2-yl)thiazol-2-yl)-N-(3-(3-(N-ethylacetamido)pyrrolidin-1-yl)propyl)thiophene-2-carboxamide]
COc1ccc(-c2csc(N(CCCN3CCOCC3)C(=O)C3CCC3)n2)cc1OC [N-(4-(3,4-dimethoxyphenyl)thiazol-2-yl)-N-(3-morpholinopropyl)cyclobutanecarboxamide]
O=C(c1cccs1)N(CCCN1CCOCC1)c1nc(-c2ccccn2)cs1 [N-(3-morpholinopropyl)-N-(4-(pyridin-2-yl)thiazol-2-yl)thiophene-2-carboxamide]
NC(=O)C1CCN(C(=O)CCCN(C(=O)c2cccs2)c2nc(-c3cc4ccccc4o3)cs2)CC1 [1-(4-(N-(4-(benzofuran-2-yl)thiazol-2-yl)thiophene-2-carboxamido)butanoyl)piperidine-4-carboxamide]
COc1ccc(-c2csc(N(CCCN3CCCC3)C(=O)c3ccccc3)n2)cc1 [N-(4-(4-methoxyphenyl)thiazol-2-yl)-N-(3-(pyrrolidin-1-yl)propyl)benzamide]
O=C(c1cccs1)N(CCCN1CCC(CCO)CC1)c1nc(-c2cc3ccccc3o2)cs1 [N-(4-(benzofuran-2-yl)thiazol-2-yl)-N-(3-(4-(2-hydroxyethyl)piperidin-1-yl)propyl)thiophene-2-carboxamide]
O=C(Nc1nncs1)c1csc(N(CCCN2CCOCC2)C(=O)c2cccs2)n1 [2-(N-(3-morpholinopropyl)thiophene-2-carboxamido)-N-(1,3,4-thiadiazol-2-yl)thiazole-4-carboxamide]
O=C(c1cccs1)N(CCCN1CCCC(O)C1)c1nc(-c2cc3ccccc3o2)cs1 (stereo not shown) [N-(4-(benzofuran-2-yl)thiazol-2-yl)-N-(3-(3-hydroxypiperidin-1-yl)propyl)thiophene-2-carboxamide]
CC(=O)N1CCN(CCCN(C(=O)c2cccs2)c2nc(-c3cc4ccccc4o3)cs2)CC1 [N-(3-(4-acetylpiperazin-1-yl)propyl)-N-(4-(benzofuran-2-yl)thiazol-2-yl)thiophene-2-carboxamide]
N#CCCN(CC1CCCO1)C(=O)CCCN(C(=O)c1cccs1)c1nc(-c2cc3ccccc3o2)cs1 (stereo not shown) [N-(4-(benzofuran-2-yl)thiazol-2-yl)-N-(4-((2-cyanoethyl)((tetrahydrofuran-2-yl)methyl)amino)-4-oxobutyl)thiophene-2-carboxamide]
O=C(c1cccs1)N(CCCN1CCOCC1)c1nc(-c2cc(-c3ccc(Cl)cc3)no2)cs1 [N-(4-(3-(4-chlorophenyl)isoxazol-5-yl)thiazol-2-yl)-N-(3-morpholinopropyl)thiophene-2-carboxamide]
CN(CCC#N)C(=O)CCN(C(=O)c1cccs1)c1nc(-c2cc3ccccc3o2)cs1 [N-(4-(benzofuran-2-yl)thiazol-2-yl)-N-(3-((2-cyanoethyl)(methyl)amino)-3-oxopropyl)thiophene-2-carboxamide]
COc1ccc(-c2csc(N(CCCN3CCCCCC3)C(=O)c3ccccc3)n2)cc1 [N-(3-(azepan-1-yl)propyl)-N-(4-(4-methoxyphenyl)thiazol-2-yl)benzamide]
COc1ccc(-c2csc(N(CCCN3CCOCC3)C(=O)c3ccc(Cl)cc3)n2)cc1 [4-chloro-N-(4-(4-methoxyphenyl)thiazol-2-yl)-N-(3-morpholinopropyl)benzamide]
O=C(c1cccs1)N(CCCN1CCOCC1)c1nc(-c2cc3ccccc3o2)cs1 [N-(4-(benzofuran-2-yl)thiazol-2-yl)-N-(3-morpholinopropyl)thiophene-2-carboxamide]
CN(C)CCN1CCN(CCCN(C(=O)c2cccs2)c2nc(-c3cc4ccccc4o3)cs2)CC1 [N-(4-(benzofuran-2-yl)thiazol-2-yl)-N-(3-(4-(2-(dimethylamino)ethyl)piperazin-1-yl)propyl)thiophene-2-carboxamide]
CC(C)(C)OC(=O)NC1CCN(CCCN(C(=O)c2cccs2)c2nc(-c3cc4ccccc4o3)cs2)C1 (stereo not shown) [tert-butyl 1-(3-(N-(4-(benzofuran-2-yl)thiazol-2-yl)thiophene-2-carboxamido)propyl)pyrrolidin-3-ylcarbamate]
O=C1CCCN1CCCN(C(=O)c1cccs1)c1nc(-c2cc3ccccc3o2)cs1 [N-(4-(benzofuran-2-yl)thiazol-2-yl)-N-(3-(2-oxopyrrolidin-1-yl)propyl)thiophene-2-carboxamide]
